Experimental data reported in patent US10829495B2, “Thieno-pyrimidine derivatives and uses thereof” (ZHEJIANG JIANFENG-YIEN BIOTECHNOLOGY CO., LTD., priority 2015, dated 2020).

Key:
[1] = target: EGFR T790M (Homo sapiens, UniProt P00533, T790M); test: EGFR enzyme assay; format: biochemical; settings: T790M mutant
Procedure: The following TABLE II lists compounds representative of the invention and their activity in EGFR assays. In these assays, the following grading was used: A: <0.1 μM; B: 0.1-10 μM.

[2] = system: NCI-H1975 cells; test: Efficacy studies in tumor bearing mice (NCI-H1975 xenograft); format: in vivo; settings: female nu/nu mice, subcutaneous NCI-H1975 tumors, orally at 40 mg/kg daily
Procedure: 2. Efficacy Studies in Tumor Bearing Mice:
Female nu/nu mice were implanted with 1×10^7 NCI-H1975 cells in 50% Matrigel subcutaneously in the flank. Tumors were pair matched with a group size of 10 mice. Test compound was administrated orally at 40 mg/kg daily.

Chain of EGFR T790M (P00533 25-1210 T790M): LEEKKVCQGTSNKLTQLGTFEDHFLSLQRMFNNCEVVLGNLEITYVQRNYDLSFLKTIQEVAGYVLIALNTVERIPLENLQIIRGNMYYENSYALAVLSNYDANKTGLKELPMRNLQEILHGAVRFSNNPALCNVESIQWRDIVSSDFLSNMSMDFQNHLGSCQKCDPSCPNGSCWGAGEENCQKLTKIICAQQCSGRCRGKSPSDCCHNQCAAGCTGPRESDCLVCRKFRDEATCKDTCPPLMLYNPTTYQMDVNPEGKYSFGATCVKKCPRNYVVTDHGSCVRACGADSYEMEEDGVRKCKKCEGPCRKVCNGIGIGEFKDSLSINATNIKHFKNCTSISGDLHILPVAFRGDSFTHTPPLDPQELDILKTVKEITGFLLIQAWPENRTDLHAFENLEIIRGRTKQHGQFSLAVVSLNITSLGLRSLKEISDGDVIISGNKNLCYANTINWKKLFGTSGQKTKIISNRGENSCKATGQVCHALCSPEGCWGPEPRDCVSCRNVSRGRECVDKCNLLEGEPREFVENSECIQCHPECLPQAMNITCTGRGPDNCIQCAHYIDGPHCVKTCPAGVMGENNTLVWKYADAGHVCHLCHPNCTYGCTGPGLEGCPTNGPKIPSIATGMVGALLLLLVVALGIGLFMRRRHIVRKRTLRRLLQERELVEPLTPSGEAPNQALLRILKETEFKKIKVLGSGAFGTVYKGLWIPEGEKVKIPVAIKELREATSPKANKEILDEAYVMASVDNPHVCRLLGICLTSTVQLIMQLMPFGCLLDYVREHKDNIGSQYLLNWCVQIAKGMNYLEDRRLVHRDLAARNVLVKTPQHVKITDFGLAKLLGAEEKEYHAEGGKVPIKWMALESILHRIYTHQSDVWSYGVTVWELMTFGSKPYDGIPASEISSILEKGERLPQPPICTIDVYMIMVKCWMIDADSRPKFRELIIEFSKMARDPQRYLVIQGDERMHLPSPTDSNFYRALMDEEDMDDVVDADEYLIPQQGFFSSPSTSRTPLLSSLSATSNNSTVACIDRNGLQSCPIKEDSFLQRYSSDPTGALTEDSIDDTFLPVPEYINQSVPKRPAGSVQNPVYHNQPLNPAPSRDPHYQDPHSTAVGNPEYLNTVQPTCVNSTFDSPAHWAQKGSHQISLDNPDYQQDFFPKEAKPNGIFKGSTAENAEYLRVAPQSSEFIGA

Row | Compound | IC50 [1] [nM] | Tumor growth inhibition (%) [2] [%]
1 | C=CC(=O)Nc1cc(Nc2nc(-c3cn(CC)c4ccccc34)c3sccc3n2)c(OC)cc1N(C)CCN(C)C [Compound 2, N-[2-[2-(dimethylamino)ethyl-methyl-amino]-5-[[4-(1-ethylindol-3-yl)thieno[3,2-d]pyrimidin-2-yl]amino]-4-methoxy-phenyl]prop-2-enamide] | < 100 | >75
2 | C=CC(=O)Nc1cc(Nc2nc(-c3cn(C(C)(C)C)c4ccccc34)c3sccc3n2)c(OC)cc1N(C)CCN(C)C [Compound 4, N-[5-[[4-(1-tert-butylindol-3-yl)thieno[3,2-d]pyrimidin-2-yl]amino]-2-[2-(dimethylamino)ethyl-methyl-amino]-4-methoxy-phenyl]prop-2-enamide] | 100 to 10000 | 
3 | C=CC(=O)Nc1cc(Nc2nc(-c3cn(C)c4ccc(C)cc34)c3sccc3n2)c(OC)cc1N(C)CCN(C)C [Compound 5, N-[2-[2-(dimethylamino)ethyl-methyl-amino]-5-[[4-(1,5-dimethylindol-3-yl)thienol[3,2-d]pyrimidin-2-yl]amino]-4-methoxy-phenyl]prop-2-enamide] | < 100 | 
4 | C=CC(=O)Nc1cc(Nc2nc(-c3cn(C)c4ccc(OC)cc34)c3sccc3n2)c(OC)cc1N(C)CCN(C)C [Compound 6, N-[2-[2-(dimethylamino)ethyl-methyl-amino]-4-methoxy-5-[[4-(5-methoxy-1-methyl-indol-3-yl)thieno[3,2-d]pyrimidin-2-yl]amino]phenyl]prop-2-enamide] | < 100 | 
5 | C=CC(=O)Nc1cc(Nc2nc(-c3cn(C)c4cc(OC)ccc34)c3sccc3n2)c(OC)cc1N(C)CCN(C)C [Compound 7, N-[2-[2-(dimethylamino)ethyl-methyl-amino]-4-methoxy-5-[[4-(6-methoxy-1-methyl-indol-3-yl)thieno[3,2-d]pyrimidin-2-yl]amino]phenyl]prop-2-enamide] | 100 to 10000 | 

Now from value to compound, other results behind:

Row | IC50 [1] [nM] | Compound | Tumor growth inhibition (%) [2] [%]
6 | < 100 | C=CC(=O)Nc1cc(Nc2nc(-c3cn(C)c4ccccc34)c3sccc3n2)c(OC)cc1N(C)CCN(C)C [Compound 1, N-[2-[2-(dimethylamino)ethyl-methyl-amino]-4-methoxy-5-[[4-(1-methylindol-3-yl)thieno[3,2-d]pyrimidin-2-yl]amino]phenyl]prop-2-enamide] | >75
7 | < 100 | C=CC(=O)Nc1cc(Nc2nc(-c3cn(C(C)C)c4ccccc34)c3sccc3n2)c(OC)cc1N(C)CCN(C)C [Compound 3, N-[2-[2-(dimethylamino)ethyl-methyl-amino]-5-[[4-(1-isopropylindol-3-yl)thieno[3,3-d]pyrimidin-2-yl]amino]-4-methoxy-phenyl]prop-2-enamide] | 
8 | < 100 | C=CC(=O)Nc1cc(Nc2nc(-c3cn(C)c4cc(C)ccc34)c3sccc3n2)c(OC)cc1N(C)CCN(C)C [Compound 8, N-[2-[2-(dimethylamino)ethyl-methyl-amino]-5-[[4-(1,6-dimethylindol-3-yl)thieno[3,2-d]pyrimidin-2-yl]amino]-4-methoxy-phenyl]prop-2-enamide] | 
